According to PubChem BioAssay AID248 (DTP/NCI, 2004):
Values joined by “and” are separate entries in the source; they are usually repeats but may differ in a detail not shown here. Equal values may be shown once. Toxic doses and inconclusive results are not listed. Rule as the data show it: active = T/C of 150% or more; inactive = T/C below 125%. Peptide text beside a SMILES is read from it. * marks the point of attachment. Boc = CC(C)(C)OC(=O)*

Tested on: L1210 leukemia ip in BDF1 mice, survival T/C
Assay: NCI In Vivo Anticancer Drug Screen. Data for tumor model L1210 Leukemia (intraperitoneal) in B6D2F1 (BDF1) mice
Conditions: endpoint: mean survival time, higher = longer survival
Outline: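 Antitumor effect is assessed in tumor-bearing animals. Survival in the compound arm is compared with a vehicle-dosed control arm and expressed as their quotient.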

[1] = dose: 100.0 mg/kg/injection, schedule: Q04DX003 (ip), vehicle: acetone
[2] = dose: 200.0 mg/kg/injection, schedule: Q04DX003 (ip), vehicle: acetone
[3] = dose: 100.0 mg/kg/injection, schedule: Q04DX003 (ip), vehicle: Klucel (hydroxypropylcellulose) (HPC)
[4] = dose: 200.0 mg/kg/injection, schedule: Q04DX003 (ip), vehicle: Klucel (hydroxypropylcellulose) (HPC)
[5] = dose: 400.0 mg/kg/injection, schedule: Q04DX003 (ip), vehicle: Klucel (hydroxypropylcellulose) (HPC)
[6] = dose: 100.0 mg/kg/injection, schedule: Q04DX002 (ip), vehicle: Klucel (hydroxypropylcellulose) (HPC)
[7] = dose: 200.0 mg/kg/injection, schedule: Q04DX002 (ip), vehicle: Klucel (hydroxypropylcellulose) (HPC)
[8] = dose: 400.0 mg/kg/injection, schedule: Q04DX002 (ip), vehicle: Klucel (hydroxypropylcellulose) (HPC)
[9] = dose: 100.0 mg/kg/injection, schedule: Q04DX002 (ip), vehicle: saline with Tween-80
[10] = dose: 200.0 mg/kg/injection, schedule: Q04DX002 (ip), vehicle: saline with Tween-80
[11] = dose: 400.0 mg/kg/injection, schedule: Q04DX002 (ip), vehicle: saline with Tween-80
[12] = dose: 100.0 mg/kg/injection, schedule: Q01DX009 (ip), vehicle: saline with Tween-80
[13] = dose: 100.0 mg/kg/injection, schedule: Q04DX003 (ip), vehicle: saline with Tween-80
[14] = dose: 200.0 mg/kg/injection, schedule: Q01DX009 (ip), vehicle: saline with Tween-80
[15] = dose: 200.0 mg/kg/injection, schedule: Q04DX003 (ip), vehicle: saline with Tween-80
[16] = dose: 400.0 mg/kg/injection, schedule: Q04DX003 (ip), vehicle: saline with Tween-80
[17] = dose: 100.0 mg/kg/injection, schedule: Q01DX001 (ip), vehicle: saline
[18] = dose: 100.0 mg/kg/injection, schedule: Q04DX003 (ip), vehicle: saline
[19] = dose: 200.0 mg/kg/injection, schedule: Q01DX001 (ip), vehicle: saline
[20] = dose: 200.0 mg/kg/injection, schedule: Q04DX003 (ip), vehicle: saline
[21] = dose: 400.0 mg/kg/injection, schedule: Q01DX001 (ip), vehicle: saline
[22] = dose: 400.0 mg/kg/injection, schedule: Q04DX003 (ip), vehicle: saline

Measured: T/C

Clc1cc(I)cc(Cl)c1Cl
inactive: [1] 108 % of control | [2] 103 % of control | dose: 400.0 mg/kg/injection, schedule: Q04DX003 (ip), vehicle: acetone 91 % of control

Cc1cc(-c2cc(C)c(O)c(C(C)(C)C)c2)cc(C(C)(C)C)c1O
inactive: dose: 25.0 mg/kg/injection, schedule: Q04DX002 (ip), vehicle: gum acacia 95 % of control | dose: 50.0 mg/kg/injection, schedule: Q04DX002 (ip), vehicle: gum acacia 95 % of control | dose: 100.0 mg/kg/injection, schedule: Q04DX002 (ip), vehicle: gum acacia 91 % of control

O=C1CCC=C(c2cccc([N+](=O)[O-])c2)O1
inactive: [3] 100 % of control | [4] 94 % of control | [5] 94 % of control

Cc1cc([N+](=O)[O-])c(NC2CCCCC2)c([N+](=O)[O-])c1
inactive: [6] 100 % of control | [7] 93 % of control | [8] 96 % of control

CC(C#N)OC(=O)c1ccccc1 (stereo unspecified)
inactive: dose: 8.75 mg/kg/injection, schedule: Q01DX009 (ip), vehicle: acetone 96 % of control | dose: 12.5 mg/kg/injection, schedule: Q01DX001 (ip), vehicle: saline 100 % of control | dose: 17.5 mg/kg/injection, schedule: Q01DX009 (ip), vehicle: acetone 95 % of control | dose: 25.0 mg/kg/injection, schedule: Q01DX001 (ip), vehicle: saline 105 % of control | dose: 35.0 mg/kg/injection, schedule: Q01DX009 (ip), vehicle: acetone 91 % of control | dose: 35.0 mg/kg/injection, schedule: Q04DX003 (ip), vehicle: saline 95 % of control | dose: 50.0 mg/kg/injection, schedule: Q01DX009 (ip), vehicle: acetone 94 % of control

CC(=O)C(CCC#N)(CCC#N)C(=O)Nc1ccccc1
inactive: [3] 97 % of control | [4] 98 % of control | [5] 95 % of control

CCOC(=O)c1cc(C)nc2ccc(Br)cc12
inactive: [9] 97 % of control | [10] 108 % of control | [11] 97 % of control

Nc1ccccn1
inactive: dose: 12.5 mg/kg/injection, schedule: Q04DX002 (ip), vehicle: saline 100 % of control | dose: 25.0 mg/kg/injection, schedule: Q04DX002 (ip), vehicle: saline 89 % of control

CC(=O)N(c1ccncc1)c1ccc([N+](=O)[O-])cc1
inactive: dose: 50.0 mg/kg/injection, schedule: Q01DX009 (ip), vehicle: saline with Tween-80 94 % of control | [12] 97 % of control and 107 % of control | [9] 105 % of control and 108 % of control | [13] 98 % of control | [14] 94 % of control and 110 % of control | [10] 105 % of control and 109 % of control | [15] 98 % of control | [11] 92 % of control | [16] 104 % of control

CC(C)CC[n+]1ccc(C(N)=O)cc1
inactive: [17] 97 % of control | [18] 98 % of control | [19] 100 % of control | [20] 97 % of control | [21] 95 % of control | [22] 104 % of control

O=c1[nH]c(=O)c2ccccc2c2ccccc12
inactive: [12] 99 % of control | [13] 102 % of control | [14] 86 % of control | [15] 107 % of control | dose: 400.0 mg/kg/injection, schedule: Q01DX009 (ip), vehicle: saline with Tween-80 93 % of control | [16] 102 % of control

O=C(COc1ccc(Cl)c(Cl)c1)NCc1ccc[n+](Cc2ccc(S(=O)(=O)F)c(Cl)c2)c1
inactive: dose: 25.0 mg/kg/injection, schedule: Q04DX003 (ip), vehicle: saline 106 % of control | dose: 50.0 mg/kg/injection, schedule: Q04DX003 (ip), vehicle: saline 106 % of control | [18] 92 % of control and 98 % of control

C=COC(=O)N(C)C
inactive: dose: 50.0 mg/kg/injection, schedule: Q01DX009 (ip), vehicle: saline 89 % of control | dose: 50.0 mg/kg/injection, schedule: Q04DX003 (ip), vehicle: acetone 98 % of control | [17] 96 % of control | dose: 100.0 mg/kg/injection, schedule: Q01DX009 (ip), vehicle: saline 94 % of control | [1] 96 % of control | [19] 107 % of control | dose: 200.0 mg/kg/injection, schedule: Q01DX009 (ip), vehicle: saline 95 % of control | [2] 95 % of control

OC(C[n+]1ccccc1)c1c[nH]c2ccccc12 (stereo unspecified)
inactive: dose: 75.0 mg/kg/injection, schedule: Q01DX001 (ip), vehicle: other 107 % of control

C=C1C(C(=O)OCC)C1C(=O)OCC (stereo unspecified)
inactive: dose: 50.0 mg/kg/injection, schedule: Q04DX002 (ip), vehicle: saline with Tween-80 98 % of control | [9] 103 % of control | [10] 106 % of control | [11] 98 % of control

O=C(Nc1cccc2ccccc12)OC/C=C/c1ccccc1
inactive: [6] 119 % of control | [7] 93 % of control | [8] 104 % of control

O=S(=O)(NC1CCC(CC2CCCCC2)CC1)c1ccccc1 (stereo unspecified)
inactive: dose: 100.0 mg/kg/injection, schedule: Q01DX009 (ip), vehicle: Klucel (hydroxypropylcellulose) (HPC) 101 % of control | [3] 96 % of control | dose: 200.0 mg/kg/injection, schedule: Q01DX009 (ip), vehicle: Klucel (hydroxypropylcellulose) (HPC) 104 % of control | [4] 97 % of control | dose: 400.0 mg/kg/injection, schedule: Q01DX009 (ip), vehicle: Klucel (hydroxypropylcellulose) (HPC) 106 % of control | [5] 94 % of control

CC(=O)NCCCC(=O)O
inactive: [18] 101 % of control | [20] 103 % of control | [22] 100 % of control

CC(CCCN(CCCl)CCCl)Nc1c2ccccc2nc2c1ccc1ccccc12 (stereo unspecified)
inactive: dose: 0.15 mg/kg/injection, schedule: Q01DX009 (ip), vehicle: saline 109 % of control | dose: 0.31 mg/kg/injection, schedule: Q01DX009 (ip), vehicle: saline 110 % of control | dose: 0.63 mg/kg/injection, schedule: Q01DX009 (ip), vehicle: saline 122 % of control | dose: 1.25 mg/kg/injection, schedule: Q01DX009 (ip), vehicle: saline 94 % of control | dose: 2.5 mg/kg/injection, schedule: Q01DX009 (ip), vehicle: saline 106 % of control

CC(C)CC(NC(=O)OC(C)(C)C)C(=O)NC(Cc1c[nH]c2ccccc12)C(=O)N1CCCC1C(=O)NCC(N)=O (stereo unspecified) (Boc-LWPG-NH2; configuration not given here)
inactive: [18] 93 % of control | [20] 90 % of control | [22] 97 % of control

Nc1cc(S(=O)(=O)O)cc2ccccc12
inactive: [17] 92 % of control | [19] 92 % of control | [21] 87 % of control

O=S(=O)(O)C(O)CC(c1ccccc1)S(=O)(=O)O (stereo unspecified)
inactive: [6] 106 % of control | [8] 98 % of control

COC1OC2COc3ccccc3OC2C2C1N2C(C)=O (stereo unspecified)
inactive: [6] 113 % of control | [7] 98 % of control
